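Where inhibition never reached the appropriate level, the endpoint shown equals the highest concentration tested. Otherwise, values were interpolated linearly from a five-concentration, 48-hour dose response in 96-well plates. GI50 marks 50% less growth. TGI: total growth inhibition.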
Legend:
Assay in all cases: growth of human tumour cells (NCI), 48 h
[1] = test system: 786-0 renal
[2] = test system: A498 renal
[3] = test system: A549 NSCLC
[4] = test system: ACHN renal
[5] = test system: BT-549 breast
[6] = test system: CAKI-1 renal
[7] = test system: CCRF-CEM leukemia
[8] = test system: COLO 205 colon
[9] = test system: DU-145 prostate
[10] = test system: EKVX NSCLC
[11] = test system: HCC-2998 colon
[12] = test system: HCT-116 colon
[13] = test system: HCT-15 colon
[14] = test system: HL-60(TB) leukemia
[15] = test system: HOP-62 NSCLC
[16] = test system: HOP-92 NSCLC
[17] = test system: HS 578T breast
[18] = test system: HT29 colon
[19] = test system: IGROV1 ovarian
[20] = test system: K-562 leukemia
[21] = test system: KM12 colon
[22] = test system: LOX IMVI melanoma
[23] = test system: M14 melanoma
[24] = test system: MALME-3M melanoma
[25] = test system: MCF7 breast
[26] = test system: MDA-MB-231 breast
[27] = test system: MDA-MB-435
[28] = test system: MDA-MB-468 breast
[29] = test system: MOLT-4 leukemia
[30] = test system: NCI-H226 lung

`Brc1ccc(N/N=C/c2c[nH]c3ccccc23)nc1` gave a GI50 [1] of 13.2 µM, a TGI [1] greater than 100 µM and a GI50 [2] of 35.2 µM. For the same compound, the TGI [2] was greater than 100 µM, the GI50 [3] was 12.6 µM and the TGI [3] was greater than 100 µM. The GI50 [4] was 11.6 µM, the TGI [4] was greater than 100 µM and the GI50 [5] was 0.17 µM. For the same compound, the TGI [5] was greater than 100 µM, the GI50 [6] was 4.35 µM and the TGI [6] was greater than 100 µM. The GI50 [7] was 0.839 µM, the TGI [7] was greater than 100 µM and the GI50 [8] was greater than 100 µM. The TGI [8] was greater than 100 µM, the GI50 [9] was 20.5 µM and the TGI [9] was greater than 100 µM. For the same compound, the GI50 [10] was 4.44 µM, the TGI [10] was greater than 100 µM and the GI50 [11] was 9.35 µM. It also gave a TGI [11] greater than 100 µM, a GI50 [12] of 13.2 µM and a TGI [12] greater than 100 µM. The GI50 [13] was 9.19 µM, the TGI [13] was greater than 100 µM and the GI50 [14] was 2.81 µM. The TGI [14] was greater than 100 µM, the GI50 [15] was 11 µM and the TGI [15] was 59.3 µM. The GI50 [16] was 6.66 µM, the TGI [16] was 57.6 µM and the GI50 [17] was 7.45 µM. The TGI [17] was greater than 100 µM, the GI50 [18] was 29.4 µM and the TGI [18] was greater than 100 µM. It also gave a GI50 [19] of 1.63 µM, a TGI [19] greater than 100 µM and a GI50 [20] of 4.05 µM. The TGI [20] was greater than 100 µM, the GI50 [21] was 3.68 µM and the TGI [21] was greater than 100 µM. The GI50 [22] was 6.47 µM, the TGI [22] was greater than 100 µM and the GI50 [23] was 78.5 µM. For the same compound, the TGI [23] was greater than 100 µM, the GI50 [24] was greater than 100 µM and the TGI [24] was greater than 100 µM. The GI50 [25] was 2.43 µM, the TGI [25] was greater than 100 µM and the GI50 [26] was 2.2 µM. The TGI [26] was 8.47 µM, the GI50 [27] was 79.4 µM and the TGI [27] was greater than 100 µM. It also gave a GI50 [28] of 1.88 µM, a TGI [28] of 6.1 µM and a GI50 [29] of 2.67 µM. It also gave a TGI [29] greater than 100 µM and a GI50 [30] of 3.78 µM.

From PubChem BioAssay (NCI)
